In the NIST ThermoML archive (doi:10.1016/j.jct.2014.07.012):

Experiment: mn = molality of the nth substance listed, in mol/kg
Details: 100 kPa, Liquid; for speed of sound: Frequency=3 MHz, Sing-around technique in a fixed-path interferometer; for mass density: Vibrating tube method

CN(C)C(N)=O [N,N-dimethylurea] + O
Details | mass density, 288.15 K [kg/m3] | mass density, 293.15 K [kg/m3] | mass density, 298.15 K [kg/m3] | mass density, 303.15 K [kg/m3] | mass density, 308.15 K [kg/m3] | speed of sound, 288.15 K [m/s] | speed of sound, 293.15 K [m/s] | speed of sound, 298.15 K [m/s] | speed of sound, 303.15 K [m/s] | speed of sound, 308.15 K [m/s]
m1 = 0.0526 | 999.644 | 998.733 | 997.562 | 996.154 | 994.527 | 1469.9 | 1485.7 | 1499.7 | 1511.8 | 1522.3
m1 = 0.0842 | 999.97 | 999.051 | 997.869 | 996.454 | 994.818 | 1471.8 | 1487.5 | 1501.3 | 1513.4 | 1523.7
m1 = 0.1149 | 1000.29 | 999.36 | 998.171 | 996.746 | 995.103 | 1473.7 | 1489.2 | 1502.9 | 1514.8 | 1525
m1 = 0.1572 | 1000.73 | 999.785 | 998.583 | 997.148 | 995.495 | 1476.3 | 1491.6 | 1505.1 | 1516.8 | 1526.8
m1 = 0.2104 | 1001.28 | 1000.32 | 999.103 | 997.653 | 995.988 | 1479.6 | 1494.6 | 1507.8 | 1519.3 | 1529.1
m1 = 0.2629 | 1001.83 | 1000.85 | 999.617 | 998.153 | 996.474 | 1482.6 | 1497.4 | 1510.4 | 1521.7 | 1531.3
m1 = 0.318 | 1002.4 | 1001.4 | 1000.15 | 998.673 | 996.98 | 1485.9 | 1500.4 | 1513.2 | 1524.2 | 1533.6

CCCNC(N)=O [N-propylurea] + O
Details | mass density, 288.15 K [kg/m3] | mass density, 293.15 K [kg/m3] | mass density, 298.15 K [kg/m3] | mass density, 303.15 K [kg/m3] | mass density, 308.15 K [kg/m3] | speed of sound, 288.15 K [m/s] | speed of sound, 293.15 K [m/s] | speed of sound, 298.15 K [m/s] | speed of sound, 303.15 K [m/s] | speed of sound, 308.15 K [m/s]
m1 = 0.0494 | 999.566 | 998.653 | 997.48 | 996.069 | 994.44 | – | – | – | – | –
m1 = 0.079 | 999.848 | 998.924 | 997.74 | 996.318 | 994.678 | – | – | – | – | –
m1 = 0.0791 | – | – | – | – | – | 1473.3 | 1488.9 | 1502.6 | 1514.5 | 1524.8
m1 = 0.1089 | 1000.13 | 999.198 | 998.003 | 996.573 | 994.925 | 1475.8 | 1491.1 | 1504.7 | 1516.4 | 1526.5
m1 = 0.1484 | 1000.52 | 999.564 | 998.356 | 996.91 | 995.249 | 1479 | 1494.1 | 1507.4 | 1518.9 | 1528.8
m1 = 0.1983 | 1000.99 | 1000.02 | 998.792 | 997.329 | 995.652 | 1483 | 1497.8 | 1510.8 | 1522 | 1531.7
m1 = 0.249 | 1001.49 | 1000.49 | 999.244 | 997.763 | 996.069 | 1487.1 | 1501.6 | 1514.2 | 1525.2 | 1534.6
m1 = 0.3012 | 1001.99 | 1000.97 | 999.704 | 998.202 | 996.489 | 1491.1 | 1505.3 | 1517.7 | 1528.4 | 1537.5

O [water] + CCCCNC(N)=O
Details | mass density [kg/m3]
308.15 K, m2 = 0 | 994.065

CCN(CC)C(N)=O [1,1-diethylurea] + O
Details | mass density, 288.15 K [kg/m3] | mass density, 293.15 K [kg/m3] | mass density, 298.15 K [kg/m3] | mass density, 303.15 K [kg/m3] | mass density, 308.15 K [kg/m3] | speed of sound, 288.15 K [m/s] | speed of sound, 293.15 K [m/s] | speed of sound, 298.15 K [m/s] | speed of sound, 303.15 K [m/s] | speed of sound, 308.15 K [m/s]
m1 = 0.0535 | 999.376 | 998.462 | 997.288 | 995.875 | 994.243 | – | – | – | – | –
m1 = 0.0856 | 999.546 | 998.62 | 997.435 | 996.012 | 994.369 | 1474.9 | 1490.4 | 1503.9 | 1515.7 | 1525.8
m1 = 0.1181 | 999.725 | 998.786 | 997.589 | 996.154 | 994.501 | 1478 | 1493.2 | 1506.6 | 1518.1 | 1528
m1 = 0.1603 | 999.959 | 999.002 | 997.788 | 996.338 | 994.672 | 1482 | 1496.8 | 1509.9 | 1521.2 | 1530.8
m1 = 0.2142 | 1000.27 | 999.288 | 998.052 | 996.585 | 994.898 | 1487 | 1501.4 | 1514.1 | 1525 | 1534.3
m1 = 0.2689 | 1000.59 | 999.586 | 998.328 | 996.837 | 995.135 | 1491.9 | 1506 | 1518.2 | 1528.8 | 1537.8
m1 = 0.3254 | 1000.93 | 999.905 | 998.628 | 997.108 | 995.381 | 1496.9 | 1510.3 | 1522.2 | 1532.6 | 1541.3

NC(N)=O [urea] + O
Details | mass density, 288.15 K [kg/m3] | mass density, 293.15 K [kg/m3] | mass density, 298.15 K [kg/m3] | mass density, 303.15 K [kg/m3] | mass density, 308.15 K [kg/m3] | speed of sound, 288.15 K [m/s] | speed of sound, 293.15 K [m/s] | speed of sound, 298.15 K [m/s] | speed of sound, 303.15 K [m/s] | speed of sound, 308.15 K [m/s]
m1 = 0.0504 | 999.922 | 999.019 | 997.847 | 996.442 | 994.816 | 1468.2 | 1483.9 | 1498 | 1510.3 | 1520.9
m1 = 0.0807 | 1000.43 | 999.511 | 998.329 | 996.911 | 995.281 | 1469.1 | 1484.8 | 1498.8 | 1511 | 1521.6
m1 = 0.1107 | 1000.92 | 999.994 | 998.802 | 997.378 | 995.738 | 1470 | 1485.6 | 1499.6 | 1511.8 | 1522.2
m1 = 0.151 | 1001.58 | 1000.64 | 999.436 | 997.998 | 996.351 | 1471.3 | 1486.8 | 1500.6 | 1512.7 | 1523.1
m1 = 0.2005 | 1002.39 | 1001.43 | 1000.21 | 998.757 | 997.097 | 1472.8 | 1488.1 | 1501.9 | 1513.9 | 1524.2
m1 = 0.2512 | 1003.21 | 1002.23 | 1000.99 | 999.529 | 997.855 | 1474.1 | 1489.5 | 1503.1 | 1515 | 1525.3

CCCCNC(N)=O [N-butylurea] + O
Details | mass density, 288.15 K [kg/m3] | mass density, 293.15 K [kg/m3] | mass density, 298.15 K [kg/m3] | mass density, 303.15 K [kg/m3] | mass density, 308.15 K [kg/m3] | speed of sound, 288.15 K [m/s] | speed of sound, 293.15 K [m/s] | speed of sound, 298.15 K [m/s] | speed of sound, 303.15 K [m/s] | speed of sound, 308.15 K [m/s]
m1 = 0.0486 | 999.444 | 998.527 | 997.349 | 995.933 | 994.297 | 1471.6 | 1487.2 | 1501.1 | 1513.1 | 1523.5
m1 = 0.0781 | 999.638 | 998.707 | 997.514 | 996.086 | 994.438 | 1474.5 | 1490 | 1503.6 | 1515.4 | 1525.6
m1 = 0.1078 | 999.835 | 998.889 | 997.683 | 996.243 | 994.583 | 1477.5 | 1492.7 | 1506.1 | 1517.7 | 1527.6
m1 = 0.1473 | 1000.1 | 999.134 | 997.909 | 996.448 | 994.774 | 1481.3 | 1496.2 | 1509.3 | 1520.6 | 1530.3
m1 = 0.1974 | 1000.44 | 999.45 | 998.201 | 996.718 | 995.022 | 1486.1 | 1500.6 | 1513.3 | 1524.3 | 1533.7
m1 = 0.2475 | 1000.78 | 999.763 | 998.489 | 996.985 | 995.266 | 1490.8 | 1504.9 | 1517.3 | 1527.9 | 1536.9
m1 = 0.2986 | 1001.14 | 1000.09 | 998.789 | 997.259 | 995.516 | 1495.5 | 1509.2 | 1521.2 | 1531.5 | 1540.2
